Measured values as given in ChEMBL document CHEMBL1141332, “Cytotoxic metabolites from an Indonesian sponge Lendenfeldia sp” (J Nat Prod, 2007).
“And” between values parts separate entries of the source, which are not always exact repeats. Equal entries are not always repeated.

How the values were obtained:
Type in all cases: functional
MDA-MB-435 = assay: Cytotoxicity against human MDA-MB-435 cells
TK-10 = assay: Cytotoxicity against human TK10 cells
RXF 393 = assay: Cytotoxicity against human RXF393 cells
SK-OV-3 = assay: Cytotoxicity against human SK-OV-3 cells
OVCAR-4 = assay: Cytotoxicity against human OVCAR4 cells
BT-549 = assay: Cytotoxicity against human BT549 cells
NCI/ADR-RES = assay: Cytotoxicity against human NCI/ADR-RES cells
NCI-H322M = assay: Cytotoxicity against human NCI-H322M cells
PC-3 = assay: Cytotoxicity against human PC3 cells
[1] = Cytotoxicity against human HS578T cells; conditions: Hs-578T
Malme-3M = assay: Cytotoxicity against human MALME-3M cells
NCI-H460 = assay: Cytotoxicity against human NCI-H460 cells
UACC-62 = assay: Cytotoxicity against human UACC62 cells
SNB-75 = assay: Cytotoxicity against human SNB75 cells
HCC 2998 = assay: Cytotoxicity against human HCC2998 cells
HT-29 = assay: Cytotoxicity against human HT29 cells
COLO 205 = assay: Cytotoxicity against human COLO205 cells
LOX IMVI = assay: Cytotoxicity against human LOX IMVI cells
HOP-92 = assay: Cytotoxicity against human HOP92 cells
IGROV-1 = assay: Cytotoxicity against human IGROV1 cells
SK-MEL-28 = assay: Cytotoxicity against human SK-MEL-28 cells
SNB-19 = assay: Cytotoxicity against human SNB19 cells
OVCAR-5 = assay: Cytotoxicity against human OVCAR5 cells
NCI-H23 = assay: Cytotoxicity against human NCI-H23 cells
OVCAR-3 = assay: Cytotoxicity against human OVCAR-3 cells
HCT-116 = assay: Cytotoxicity against human HCT116 cells
A549 = assay: Cytotoxicity against human A549 cells
MOLT-4 = assay: Cytotoxicity against human MOLT4 cells
UACC-257 = assay: Cytotoxicity against human UACC257 cells
NCI-H226 = assay: Cytotoxicity against human NCI-H226 cells
SN12C = assay: Cytotoxicity against human SN12C cells
RPMI-8226 = assay: Cytotoxicity against human RPMI8226 cells
KM12 = assay: Cytotoxicity against human KM12 cells
EKVX = assay: Cytotoxicity against human EKVX cells
HL-60 = assay: Cytotoxicity against human HL60 cells
SF-539 = assay: Cytotoxicity against human SF539 cells
K562 = assay: Cytotoxicity against human K562 cells
UO-31 = assay: Cytotoxicity against human UO31 cells
786-0 = assay: Cytotoxicity against human 786-0 cells
SK-MEL-2 = assay: Cytotoxicity against human SK-MEL-2 cells
DU-145 = assay: Cytotoxicity against human DU145 cells
SK-MEL-5 = assay: Cytotoxicity against human SK-MEL-5 cells
M14 = assay: Cytotoxicity against human M14 cells
MCF7 = assay: Cytotoxicity against human MCF7 cells
ACHN = assay: Cytotoxicity against human ACHN cells
[2] = read-out: Log LC50 (the source's name) (converted)

CC(=O)O[C@H]1C[C@H]2[C@@](C)(CC[C@H]3C(C)(C)CCC[C@@]32CO)[C@@H]2CC=C(C(C)=O)[C@H](C=O)[C@@]12C
GI50 (MDA-MB-435): 525 nM
LC50 (MDA-MB-435): 4270 nM
TGI (MDA-MB-435; read-out: Log TGI (converted)): 1740 nM
GI50 (TK-10): 302 nM
LC50 (TK-10): 3390 nM
TGI (TK-10; read-out: Log TGI (converted)): 891 nM
GI50 (RXF 393): 295 nM
LC50 (RXF 393): 3630 nM
TGI (RXF 393; read-out: Log TGI (converted)): 1120 nM
GI50 (SK-OV-3): 1200 nM
CC50 (SK-OV-3; [2]): 6310 nM
TGI (SK-OV-3; read-out: Log TGI (converted)): 2750 nM
GI50 (OVCAR-4): 575 nM
CC50 (OVCAR-4; [2]): 5010 nM
TGI (OVCAR-4; read-out: Log TGI (converted)): 1910 nM
GI50 (BT-549): 214 nM
LC50 (BT-549): 977 nM
TGI (BT-549; read-out: Log TGI (converted)): 457 nM
GI50 (NCI/ADR-RES): 1070 nM
LC50 (NCI/ADR-RES): 6170 nM
TGI (NCI/ADR-RES; read-out: Log TGI (converted)): 2570 nM
GI50 (NCI-H322M): 1910 nM
CC50 (NCI-H322M; [2]): 7590 nM
TGI (NCI-H322M; read-out: Log TGI (converted)): 3800 nM
GI50 (PC-3): 380 nM
LC50 (PC-3): 3800 nM
TGI (PC-3; read-out: Log TGI (converted)): 1350 nM
GI50 [1]: 240 nM
LC50 [1]: 3240 nM
TGI ([1]; read-out: Log TGI (converted)): 646 nM
GI50 (Malme-3M): 1290 nM
CC50 (Malme-3M; [2]): 5890 nM
TGI (Malme-3M; read-out: Log TGI (converted)): 2750 nM
GI50 (NCI-H460): 759 nM
CC50 (NCI-H460; [2]): 6030 nM
TGI (NCI-H460; read-out: Log TGI (converted)): 2290 nM
GI50 (UACC-62): 1480 nM
CC50 (UACC-62; [2]): 5370 nM
TGI (UACC-62; read-out: Log TGI (converted)): 2820 nM
GI50 (SNB-75): 355 nM
CC50 (SNB-75; [2]): 3470 nM
TGI (SNB-75; read-out: Log TGI (converted)): 1120 nM
GI50 (HCC 2998): 1000 nM
CC50 (HCC 2998; [2]): 4790 nM
TGI (HCC 2998; read-out: Log TGI (converted)): 2190 nM
GI50 (HT-29): 324 nM
CC50 (HT-29; [2]): 4270 nM
TGI (HT-29; read-out: Log TGI (converted)): 1150 nM
GI50 (COLO 205): 295 nM
CC50 (COLO 205; [2]): 4370 nM
TGI (COLO 205; read-out: Log TGI (converted)): 1320 nM
GI50 (LOX IMVI): 234 nM
CC50 (LOX IMVI; [2]): 1780 nM
TGI (LOX IMVI; read-out: Log TGI (converted)): 550 nM
GI50 (HOP-92): 1350 nM
CC50 (HOP-92; [2]): 5500 nM
TGI (HOP-92; read-out: Log TGI (converted)): 2750 nM
GI50 (IGROV-1): 1580 nM
CC50 (IGROV-1; [2]): 7080 nM
TGI (IGROV-1; read-out: Log TGI (converted)): 3310 nM
GI50 (SK-MEL-28): 251 nM
CC50 (SK-MEL-28; [2]): 2290 nM
TGI (SK-MEL-28; read-out: Log TGI (converted)): 631 nM
GI50 (SNB-19): 1120 nM
CC50 (SNB-19; [2]): 5750 nM
TGI (SNB-19; read-out: Log TGI (converted)): 2570 nM
GI50 (OVCAR-5): 832 nM
CC50 (OVCAR-5; [2]): 4680 nM
TGI (OVCAR-5; read-out: Log TGI (converted)): 2090 nM
GI50 (NCI-H23): 1410 nM
CC50 (NCI-H23; [2]): 5500 nM
TGI (NCI-H23; read-out: Log TGI (converted)): 2750 nM
GI50 (OVCAR-3): 204 nM
CC50 (OVCAR-3; [2]): 676 nM
TGI (OVCAR-3; read-out: Log TGI (converted)): 372 nM
GI50 (HCT-116): 186 nM
CC50 (HCT-116; [2]): 676 nM
TGI (HCT-116; read-out: Log TGI (converted)): 355 nM
GI50 (A549): 562 nM
CC50 (A549; [2]): 4680 nM
TGI (A549; read-out: Log TGI (converted)): 1860 nM
GI50 (MOLT-4): 195 nM
CC50 (MOLT-4; [2]): 1950 nM
TGI (MOLT-4; read-out: Log TGI (converted)): 513 nM
GI50 (UACC-257): 1950 nM
CC50 (UACC-257; [2]): 9550 nM
TGI (UACC-257; read-out: Log TGI (converted)): 4370 nM
GI50 (NCI-H226): 1380 nM
CC50 (NCI-H226; [2]): > 100000 nM
TGI (NCI-H226; read-out: Log TGI (converted)): 2820 nM
GI50 (SN12C): 1200 nM
LC50 (SN12C): 5010 nM
TGI (SN12C; read-out: Log TGI (converted)): 2450 nM
GI50 (RPMI-8226): 427 nM
CC50 (RPMI-8226; [2]): 8130 nM
TGI (RPMI-8226; read-out: Log TGI (converted)): 1820 nM
GI50 (KM12): 501 nM
CC50 (KM12; [2]): 4570 nM
TGI (KM12; read-out: Log TGI (converted)): 1700 nM
GI50 (EKVX): 832 nM
CC50 (EKVX; [2]): 4900 nM
TGI (EKVX; read-out: Log TGI (converted)): 2140 nM
GI50 (HL-60; Homo sapiens, HL-60): 170 nM
TGI (HL-60; read-out: Log TGI (converted)): 537 nM and 2630 nM
GI50 (SF-539): 195 nM
CC50 (SF-539; [2]): 794 nM
TGI (SF-539; read-out: Log TGI (converted)): 389 nM
GI50 (K562): 2190 nM
CC50 (K562; [2]): 30200 nM
TGI (K562; read-out: Log TGI (converted)): 7760 nM
GI50 (UO-31): 417 nM
LC50 (UO-31): 3980 nM
TGI (UO-31; read-out: Log TGI (converted)): 1450 nM
GI50 (786-0): 224 nM
CC50 (786-0; [2]): 1170 nM
TGI (786-0; read-out: Log TGI (converted)): 490 nM
GI50 (SK-MEL-2): 1620 nM
CC50 (SK-MEL-2; [2]): 8130 nM
TGI (SK-MEL-2; read-out: Log TGI (converted)): 3630 nM
GI50 (DU-145): 457 nM
LC50 (DU-145): 3980 nM
TGI (DU-145; read-out: Log TGI (converted)): 1580 nM
GI50 (SK-MEL-5): 501 nM
CC50 (SK-MEL-5; [2]): 4070 nM
TGI (SK-MEL-5; read-out: Log TGI (converted)): 1700 nM
GI50 (M14): 1000 nM
CC50 (M14; [2]): 4900 nM
TGI (M14; read-out: Log TGI (converted)): 2240 nM
GI50 (MCF7): 776 nM
LC50 (MCF7): 25700 nM
TGI (MCF7; read-out: Log TGI (converted)): 3470 nM
GI50 (ACHN): 282 nM
LC50 (ACHN): 3240 nM
TGI (ACHN; read-out: Log TGI (converted)): 1070 nM
